In brackets after ≈: the same amount, converted by molar mass.

What all share (format): functional
The test system of assay [1] is Escherichia coli. The assay is described as follows: Antibacterial activity against Escherichia coli infected in sc dosed mouse assessed as protection from infection compound administered 0.5 hrs, 4 and 24 hrs post inoculation. The settings on record: read-out: PD50.
In assay [2] the test system is Pasteurella multocida. The assay is described as follows: Antibacterial activity against Pasteurella multocida infected in sc dosed mouse assessed as protection from infection compound administered 0.5 hrs, 4 and 24 hrs post inoculation. To be noted: read-out: PD50.
Assay [3] deals with Salmonella enterica. Briefly: Antibacterial activity against Salmonella choleraesuis infected in po dosed mouse assessed as protection from infection compound administered 0.5 hrs, 4 and 24 hrs post inoculation. The settings on record: read-out: PD50.
Assay [4] has as its system Escherichia coli. Briefly: Antibacterial activity against Escherichia coli infected in po dosed mouse assessed as protection from infection compound administered 0.5 hrs, 4 and 24 hrs post inoculation. The settings on record: read-out: PD50.
The subject of assay [5] is Salmonella enterica. The assay is described as follows: Antibacterial activity against Salmonella choleraesuis infected in mouse assessed as protection from infection at 25 mg/kg, po administered 0.5 hrs, 4 and 24 hrs post inoculation.
Assay [6] deals with Salmonella enterica. The assay is described as follows: Antibacterial activity against Salmonella choleraesuis infected in sc dosed mouse assessed as protection from infection compound administered 0.5 hrs, 4 and 24 hrs post inoculation. To be noted: read-out: PD50.
The subject of assay [7] is Salmonella enterica. The assay is described as follows: Antibacterial activity against Salmonella choleraesuis infected in mouse assessed as protection from infection at 25 mg/kg, sc administered 0.5 hrs, 4 and 24 hrs post inoculation. To be noted: route subcutaneous.
Assay [8] has as its system Pasteurella multocida. The assay is described as follows: Antibacterial activity against Pasteurella multocida infected in po dosed mouse assessed as protection from infection compound administered 0.5 hrs, 4 and 24 hrs post inoculation. The settings on record: read-out: PD50.
Assay [9] has as its system Brachyspira hyodysenteriae. Briefly: Antibacterial activity against Treponema hyodysenteriae after 72 hrs by dilution method.
Assay [10] concerns Salmonella enterica. The assay is described as follows: Antibacterial activity against Salmonella choleraesuis.
In the next assay the test system is Streptococcus pyogenes. Briefly: Antibacterial activity against Streptococcus pyogenes.
Assay [11] relates to Pasteurella multocida. Briefly: Antibacterial activity against Pasteurella multocida.
Assay [12] relates to Escherichia coli. The assay is described as follows: Antibacterial activity against Escherichia coli.

Regarding `CC1(O)OCc2c1[n+]([O-])c1ccccc1[n+]2[O-]` (configuration not stated), the ED50 was 13 mg/kg with Escherichia coli [1]; 8.1 mg/kg in the assay with Pasteurella multocida [2]; 6 mg/kg in the assay with Salmonella enterica [3]; 14 mg/kg in the assay on Escherichia coli [4]; 4.4 mg/kg with Salmonella enterica [6]; 11 mg/kg with Pasteurella multocida [8]. For the same compound, the Activity with Salmonella enterica [5] and in the assay with Salmonella enterica [7] was 100% each time.
Regarding `COC1(C)OCc2c1[n+]([O-])c1ccccc1[n+]2[O-]` (configuration not stated), the Activity in the assay on Salmonella enterica [5] and with Salmonella enterica [7] was 70% throughout.
Consider `CCOC1(C)OCc2c1[n+]([O-])c1ccccc1[n+]2[O-]` (configuration not stated), for which the Activity with Salmonella enterica [5] was 70%; in the assay on Salmonella enterica [7], 50%.
The matching figures for `CC1(OCc2ccccc2)OCc2c1[n+]([O-])c1ccccc1[n+]2[O-]` (configuration not stated): 40% and 60%.
Consider `COC(=O)N/N=C/c1c[n+]([O-])c2ccccc2[n+]1[O-]` [CARBADOX], for which the MIC was found to be 0.09 µg/mL (≈ 0.343 µM) in [9]; 0.19 µg/mL (≈ 0.725 µM) against Salmonella enterica [10]; 0.19 µg/mL (≈ 0.725 µM) in the assay on Streptococcus pyogenes; 0.78 µg/mL (≈ 2.97 µM) against Pasteurella multocida [11]; 0.39 µg/mL (≈ 1.49 µM) in the assay on Escherichia coli [12]. In addition, the ED50 in the assay on Escherichia coli [1] amounted to 7 mg/kg; with Pasteurella multocida [2] it was 18 mg/kg; in the assay with Salmonella enterica [3] it was 20 mg/kg; in the assay on Escherichia coli [4], 8.2 mg/kg; with Salmonella enterica [6] it was 44 mg/kg; with Pasteurella multocida [8], 16 mg/kg. The Activity in the assay with Salmonella enterica [5] is 80%; with Salmonella enterica [7], 40%.

The term MIC denotes the lowest concentration found to suppress growth. A high value points to weaker potency.

These data come from ChEMBL document CHEMBL3244049, “Synthesis and antibacterial activity of 1-hydroxy-1-methyl-1,3-dihydrofuro[3,4-b]quinoxaline 4,9-dioxide and related compounds” (1979).
